Experimental data as given in patent US12121530B2, “Composition and methods for treating articulating joint disorders with nucleoside reverse transcriptase inhibitors” (RHODE ISLAND HOSPITAL, priority 2018, dated 2024).
“Also recorded” adds a separate entry of the source.

Experiments:
[1] = tested on: human chondrocyte cell line-C28; test: gene expression in human chondrocyte cell line C28 treated with 3TC; assay type: cell-based
Procedure: Both miRNA and mRNA were extracted using miRNeasy Mini Kit (Qiagen®, Germantown, Md., USA) and reversely transcribed using miScriptIIRT Kit (Qiagen®, Germantown, Md., USA) according to manufacturer's instruction. qPCR was performed using SYBR Green PCR master mix (Qiagen®, Germantown, Md., USA) on a Bio-Rad CFX96 real-time PCR detection system (Bio-Rad®, Hercules, Calif., USA). Amplification conditions are as follows: 95° C. for 10 min, 40 cycles of 95° C. for 10″, 55° C. for 30″, and 72° C. for 30″. 18S ribosomal or GAPDH RNA was used as an internal control gene to normalize the mRNAs level. The ubiquitously expressed snRNA U6 was used as an endogenous control for miRNAs level. Primers were synthesized by Integrated DNA Technologies (http://www.idtdna.com). The primers for miR-365 were purchased from Qiagen. Fold changes of mRNA and miRNAs were calculated by the 2^^(ΔΔCt) method and normalized to 18S/GAPDH or U6 snRNA, respectively. […]

miR-365 Tg mice = test: primary OA model: miR-365 Tg mice given oral 3TC for 4 months; assay type: in vivo, mouse; conditions: for tibial subchondral BV/TV / connectivity density of subchondral bone / trabecular number of subchondral bone / trabecular separation of subchondral bone: microCT
129S6/SvEv mice = test: DMM induced OA (PTOA) in 129S6/SvEv mice, oral 3TC or FTC; assay type: in vivo, mouse; conditions: for Adamts5 mRNA in cartilage / Col10 (Col 10a1) mRNA in cartilage / Line-1 level in cartilage / Mmp13 mRNA in cartilage / miR-365 induction by DMM: DMM mice, qPCR, versus Saline; for body weights, drug versus control treatment groups: DMM or Sham mice, drug in water from 8 weeks old for 4 weeks; for DMM induced proteoglycan loss in surgical knees: histology, drug in water for 4 weeks; for DMM induced OA / cartilage joint degeneration (Safranin O, OARSI quantification): oral administration for 1 month from 2-month-old
Source text: 12956/SvEv strain male mice were purchased from Taconic (https://www.taconic.com/mouse-model/129s6) at their age of 7-week-old. At least 3-day (72-hrs) acclimation period must be given to mice before any further procedures occurred to them. All 12956/SvEv strain mice throughout the studies were male.
129S6/SvEv male mice were chosen for experimental subjects at their age of 8-week-old. To create mouse injury/trauma induced OA model, medial meniscus ligament was transected using a previously described method (Lohmander, L. S., et al. Am J Sports Med 35, 1756-1769 (2007)). Briefly, 8-week-old male mice were anesthetized using either intraperitoneal (IP) injection of Ketamine/Dexmedetomidine or isoflurane to carry out medial parapatellar arthrotomy. Transection was made with a stab knife (Sharpoint™, Cat. 72-1551). At Weeks 12, mice were euthanized and dissected for histological examination as well as cartilage RNA extraction. 12 mice were used for each group/time point.
Paraffin sections were de-paraffinized in 2 changes of xylene, 10 mins each, followed by re-hydration in 2 changes of 100% alcohol, 5 mins each; 2 changes of 95% alcohol, 5 mins each; 70% alcohol for 5 mins. Sections were then rinsed in running tap water for 2 mins before stained with 0.4% fast green solution (Sigma, Cat. F-7258, St. Louis, Mo. 63103 USA) for 2 mins however the latter timing must be empirically controlled to assure desired coloration. Stained sections were then quickly rinsed with 1% acetic acid solution (Sigma, Cat. 695092-500ML-GL, St. Louis, Mo. 63103 USA) for no more than 10-15 sec. 0.1% Safranin O Solution was used for staining proteoglycan however the actual timing must be carefully determined based on actual coloring condition, for maximally 10 mins. After Safranin O staining, sections were submerged in 2 changes of 95% alcohol, 2 mins each, 2 changes of 100% alcohol, 2 mins each for de-hydration. Lastly, sections were cleared in 2 changes of xylene, 2 mins each, and mounted using resinous mounting medium (ACRYMOUNT™, Cat. SL80-4, McKinney, Tex. 75069 USA).
To histologically evaluate OA severity, we quantified Safranin O stained knee sections according to OARSI semi-quantitative system as previously described^3.
Both miRNA and mRNA were extracted using miRNeasy Mini Kit (Qiagen®, Germantown, Md., USA) and reversely transcribed using miScriptIIRT Kit (Qiagen®, Germantown, Md., USA) according to manufacturer's instruction. qPCR was performed using SYBR Green PCR master mix (Qiagen®, Germantown, Md., USA) on a Bio-Rad CFX96 real-time PCR detection system (Bio-Rad®, Hercules, Calif., USA). Amplification conditions are as follows: 95° C. for 10 min, 40 cycles of 95° C. for 10″, 55° C. for 30″, and 72° C. for 30″. 18S ribosomal or GAPDH RNA was used as an internal control gene to normalize the mRNAs level. The ubiquitously expressed snRNA U6 was used as an endogenous control for miRNAs level. Primers were synthesized by Integrated DNA Technologies (http://www.idtdna.com). The primers for miR-365 were purchased from Qiagen. Fold changes of mRNA and miRNAs were calculated by the 2^^(ΔΔCt) method and normalized to 18S/GAPDH or U6 snRNA, respectively.

[2] = tested on: mouse primary chondrocytes; test: RT-qPCR gene expression in mouse primary chondrocytes treated with 3TC or FTC at various dosages; assay type: cell-based; conditions: mouse chondrocytes (FIG. 3H), western blot Line-1-ORF1
[3] = human chondrocytes C28, RNA level, various dosages
[4] = miR-365 Tg mice, 3TC for 4 months, RT-qPCR
[5] = miR-365 Tg mice, 3TC for four months

SMILES: Nc1ccn([C@@H]2CS[C@H](CO)O2)c(=O)n1 [3TC, lamivudine]
- Acan expression [1, 3]: promotes; also recorded: stimulated
- Adamts5 expression [1, 3]: inhibited
- COL10 (COL10A1) expression [1, 3]: inhibited
- IHH expression [1, 3]: inhibits
- Line-1 expression [1, 3]: inhibited
- MMP13 expression [1, 3]: inhibited
- COL2A1 expression ([1]; human chondrocytes, RNA level): stimulated
- early onset of OA / OA pathogenesis (Safranin O staining, OARSI quantification) (miR-365 Tg mice; 6-month-old miR-365 Tg mice, 3TC for 4 months): abolished; also recorded: prevented early onset of OA
- tibial subchondral BV/TV (miR-365 Tg mice; Cre control mice, 3TC 4 months): did not alter
- connectivity density of subchondral bone (miR-365 Tg mice; Cre mice, 3TC 4 months): increased
- trabecular number of subchondral bone (miR-365 Tg mice; Cre mice, 3TC 4 months): increased
- trabecular separation of subchondral bone (miR-365 Tg mice; Cre mice, 3TC 4 months): decreased
- subchondral BMD (miR-365 Tg mice; miR-365 Tg mice, 3TC 4 months): without decreasing
- connectivity density of subchondral bone (miR-365 Tg mice; miR-365 Tg mice, 3TC 4 months): no effect
- tibial subchondral BV/TV (miR-365 Tg mice; miR-365 Tg mice, 3TC 4 months): did not alter
- trabecular number of subchondral bone (miR-365 Tg mice; miR-365 Tg mice, 3TC 4 months): no effect
- trabecular separation of subchondral bone (miR-365 Tg mice; miR-365 Tg mice, 3TC 4 months): no effect
- Acan levels in articular cartilage (miR-365 Tg mice; [4]): unchanged
- Adamts5 expression in articular cartilage (miR-365 Tg mice; [4]): significantly inhibited; also recorded: significantly suppressed
- Alu expression in articular cartilage (miR-365 Tg mice; [4]): significantly suppressed
- Col10 (Col10a1) expression in articular cartilage (miR-365 Tg mice; [4]): significantly inhibited; also recorded: significantly suppressed
- Inf-α expression in articular cartilage (miR-365 Tg mice; [4]): significantly inhibited
- Line-1 (Line-1-ORF2) expression in articular cartilage (miR-365 Tg mice; [4]): significantly inhibited; also recorded: abolished; also recorded: significantly suppressed
- Sqstm1 expression in articular cartilage (miR-365 Tg mice; [4]): inhibition was abolished; also recorded: significantly up-regulated
- Zc3hav1 (Zac3hav1) expression in articular cartilage (miR-365 Tg mice; [4]): inhibition was abolished; also recorded: significantly up-regulated
- Dicer mRNA level in cartilage (miR-365 Tg mice; [5]): inhibition was abolished
- Prkdc mRNA level in cartilage (miR-365 Tg mice; [5]): inhibition was abolished
- miR-365 expression in articular cartilage (miR-365 Tg mice; miR-365 Tg mice, oral 3TC for 4 months, RT-qPCR): abolished; also recorded: significantly suppressed
- Ihh expression in vivo (miR-365 Tg mice; mice treated with 3TC from 2-month old till 6-month old): suppresses only Line-1 but not Ihh
- Adamts5 mRNA in cartilage (129S6/SvEv mice): significantly repressed
- Col10 (Col 10a1) mRNA in cartilage (129S6/SvEv mice): significantly repressed
- Line-1 level in cartilage (129S6/SvEv mice): inhibition
- Mmp13 mRNA in cartilage (129S6/SvEv mice): significantly repressed
- miR-365 induction by DMM (129S6/SvEv mice): significantly prohibit
- body weights, drug versus control treatment groups (129S6/SvEv mice): No appreciable difference
- DMM induced proteoglycan loss in surgical knees (129S6/SvEv mice): effectively prevent
- DMM induced OA / cartilage joint degeneration (Safranin O, OARSI quantification) (129S6/SvEv mice): significantly prevented; also recorded: significantly inhibited
- L1 expression at protein level [2]: inhibited

SMILES: Nc1nc(=O)n([C@@H]2CS[C@H](CO)O2)cc1F [FTC, 2′,3′-dideoxy-5-fluoro-3′-thiacytidine]
- Adamts5 mRNA in cartilage (129S6/SvEv mice): significantly repressed
- Col10 (Col 10a1) mRNA in cartilage (129S6/SvEv mice): significantly repressed
- Line-1 level in cartilage (129S6/SvEv mice): inhibition
- Mmp13 mRNA in cartilage (129S6/SvEv mice): significantly repressed
- miR-365 induction by DMM (129S6/SvEv mice): significantly prohibit
- body weights, drug versus control treatment groups (129S6/SvEv mice): No appreciable difference
- DMM induced proteoglycan loss in surgical knees (129S6/SvEv mice): effectively prevent
- DMM induced OA / cartilage joint degeneration (Safranin O, OARSI quantification) (129S6/SvEv mice): significantly prevented; also recorded: significantly inhibited
